Article PMC9303580, “The T1‐tetramerisation domain of Kv1.2 rescues expression and preserves function of a truncated NaChBac sodium channel” (Febs Letters, 2022)

Assays:
full-length NaChBac = target: T1, full-length NaChBac (Halalkalibacterium halodurans, UniProt Q9KCR8); experiment: […]+ flux assay in proteoliposomes; format: biochemical
T1 construct: gene BH1501; full-length, hexa-histidine-tagged (pET-15b), expressed in E. coli C41(DE3), purified in Cymal-5, reconstituted in POPE:POPG liposomes
T1 sequence (Q9KCR8 1-274): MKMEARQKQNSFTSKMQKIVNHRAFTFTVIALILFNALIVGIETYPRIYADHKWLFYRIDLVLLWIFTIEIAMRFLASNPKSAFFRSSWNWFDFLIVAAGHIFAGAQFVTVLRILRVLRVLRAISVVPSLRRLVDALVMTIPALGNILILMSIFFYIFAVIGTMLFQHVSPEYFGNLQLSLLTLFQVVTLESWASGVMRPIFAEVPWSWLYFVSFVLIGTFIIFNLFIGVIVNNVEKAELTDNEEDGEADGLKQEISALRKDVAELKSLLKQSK

T1-chimera = test system: T2, T1-chimera; experiment: […]+ flux assay in proteoliposomes; format: biochemical, Halalkalibacterium halodurans; settings: estimated; block at 45 min, POPE:POPG 3:1 liposomes, 450 mM NaCl inside, pH 7.5; pore blocker
T2 construct: gene NaChBac; single-chain fusion: N-terminal His6 tag, human Kv1.2 T1 domain (1-145, MTV...NEF), then NaChBac TM domain printed as 9-239 (KQN...ELT; forward primer encodes QKQN, K8 is in QKQ, so start is probably Q7), CTD removed; E. coli C41(DE3); with Potassium voltage-gated channel subfamily A member 2

IC50 (full-length NaChBac): 2000 nM
IC50 (T1-chimera): 2000 nM
SMILES: COCC(=O)O[C@]1(CCN(C)CCCc2nc3ccccc3[nH]2)CCc2cc(F)ccc2[C@@H]1C(C)C [mibefradil]
